Molecular target: Opc (Neisseria meningitidis, UniProt Q7DDI3)
Assay type: binding
Conditions: Opc+ outer membrane preparation (4 mg/ml, PBS) in cell, 100 µM glycan in syringe; Opc- preparation and PBS controls subtracted

Chain of Opc (Q7DDI3 20-272 limits assumed): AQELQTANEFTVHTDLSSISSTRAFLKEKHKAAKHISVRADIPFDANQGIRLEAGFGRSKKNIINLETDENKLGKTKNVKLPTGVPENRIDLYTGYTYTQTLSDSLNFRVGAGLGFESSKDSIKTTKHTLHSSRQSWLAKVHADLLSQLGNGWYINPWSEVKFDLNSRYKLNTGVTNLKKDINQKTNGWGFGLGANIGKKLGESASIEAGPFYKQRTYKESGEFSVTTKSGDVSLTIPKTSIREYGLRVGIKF

Row | SMILES | Kd [nM]
1 | CC(=O)N[C@H]1[C@H]([C@H](O)[C@H](O)CO)O[C@@](OC[C@H]2O[C@@H](O[C@H]3[C@H](O)[C@@H](O)C(O)O[C@@H]3CO)[C@H](O)[C@@H](O)[C@H]2O)(C(=O)O)C[C@@H]1O (stereo partly drawn) [11B, Neu5Acα2-6Galβ1-4Glc] | 713 ± 140
2 | C[C@@H]1O[C@@H](O[C@H]2C(O)O[C@H](CO)[C@H](O)[C@@H]2O)[C@@H](O)[C@H](O)[C@@H]1O (stereo partly drawn) [compound 71, Fucα1-2Galβ] | 2950 ± 590
3 | CC(=O)N[C@H]1[C@H](O[C@H]2[C@@H](O)[C@@H](CO)O[C@@H](O[C@H]3[C@H](O)[C@@H](O)C(O)O[C@@H]3CO)[C@@H]2O)O[C@H](CO)[C@@H](O[C@@H]2O[C@H](CO)[C@H](O)[C@H](O)[C@H]2O)[C@@H]1O (stereo partly drawn) [compound 383, Galβ1-4GlcNAcβ1-3Galβ1-4Glcβ] | 1770 ± 690

— article PMC5515891 (Scientific Reports, 2017)
